ChEMBL document CHEMBL1201862, “PubChem BioAssay data set” (2004)
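48-hour exposure; five concentrations; linearly interpolated endpoints. GI50 is the concentration that inhibits growth by half.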 The source made the active and inactive calls. Cut-off read from the data, not from the text of the source: active = GI50 up to about 1.1 µM and inactive = higher.

Key:
Assay in all cases: NCI-60 cell line screen, 48 h
786-0 = test system: 786-0
A498 = test system: A498
A549 = test system: A549
ACHN = test system: ACHN
CAKI-1 = test system: CAKI-1
CCRF-CEM = test system: CCRF-CEM
COLO 205 = test system: COLO 205
DLD-1 = test system: DLD-1
DMS-114 = test system: DMS-114
DMS-273 = test system: DMS-273
HCC 2998 = test system: HCC 2998
HCT-116 = test system: HCT-116
HCT-15 = test system: HCT-15
HL-60 = test system: HL-60
HOP-18 = test system: HOP-18
HOP-62 = test system: HOP-62
HOP-92 = test system: HOP-92
HT-29 = test system: HT-29
IGROV-1 = test system: IGROV-1
K562 = test system: K562
KM-20L2 = test system: KM-20L2
KM12 = test system: KM12
LOX IMVI = test system: LOX IMVI
LXFL 529 = test system: LXFL 529
M14 = test system: M14
M19-MEL = test system: M19-MEL
MOLT-4 = test system: MOLT-4
Malme-3M = test system: Malme-3M
NCI-H460 = test system: NCI-H460
NCI-H522 = test system: NCI-H522
OVCAR-4 = test system: OVCAR-4
OVCAR-5 = test system: OVCAR-5
OVCAR-8 = test system: OVCAR-8
RPMI-8226 = test system: RPMI-8226
RXF 393 = test system: RXF 393
SF-268 = test system: SF-268
SF-295 = test system: SF-295
SF-539 = test system: SF-539
SK-MEL-2 = test system: SK-MEL-2
SK-MEL-5 = test system: SK-MEL-5
SK-OV-3 = test system: SK-OV-3
SN12C = test system: SN12C
SNB-19 = test system: SNB-19
SNB-75 = test system: SNB-75
SNB-78 = test system: SNB-78
SR = test system: SR
SW-620 = test system: SW-620
TK-10 = test system: TK-10
U-251 = test system: U-251
UACC-257 = test system: UACC-257
UACC-62 = test system: UACC-62
UO-31 = test system: UO-31
EKVX = test system: EKVX
NCI-H226 = test system: NCI-H226
NCI-H23 = test system: NCI-H23
OVCAR-3 = test system: OVCAR-3
XF498 = test system: XF498

Nc1ccc(C(=O)O)c2[nH]c3ccccc3c(=O)c12
GI50 (786-0): > 100 µM (inactive) | GI50 (A498): > 100 µM (inactive) | GI50 (A549): > 100 µM (inactive) | GI50 (ACHN): > 100 µM (inactive) | GI50 (CAKI-1): > 100 µM (inactive) | GI50 (CCRF-CEM): 88.7 µM (inactive) | GI50 (COLO 205): > 100 µM (inactive) | GI50 (DLD-1): > 100 µM (inactive) | GI50 (DMS-114): > 100 µM (inactive) | GI50 (DMS-273): > 100 µM (inactive) | GI50 (HCC 2998): > 100 µM (inactive) | GI50 (HCT-116): > 100 µM (inactive) | GI50 (HCT-15): > 100 µM | GI50 (HL-60): > 100 µM (inactive) | GI50 (HOP-18): > 100 µM (inactive) | GI50 (HOP-62): > 100 µM (inactive) | GI50 (HOP-92): > 100 µM (inactive) | GI50 (HT-29): > 100 µM (inactive) | GI50 (IGROV-1): > 100 µM (inactive) | GI50 (K562): > 100 µM (inactive) | GI50 (KM-20L2): > 100 µM (inactive) | GI50 (KM12): > 100 µM (inactive) | GI50 (LOX IMVI): > 100 µM (inactive) | GI50 (LXFL 529): > 100 µM (inactive) | GI50 (M14): > 100 µM (inactive) | GI50 (M19-MEL): > 100 µM (inactive) | GI50 (MOLT-4): > 100 µM (inactive) | GI50 (Malme-3M): > 100 µM (inactive) | GI50 (NCI-H460): > 100 µM (inactive) | GI50 (NCI-H522): > 100 µM (inactive) | GI50 (OVCAR-4): > 100 µM (inactive) | GI50 (OVCAR-5): > 100 µM (inactive) | GI50 (OVCAR-8): > 100 µM (inactive) | GI50 (RPMI-8226): > 100 µM (inactive) | GI50 (RXF 393): > 100 µM (inactive) | GI50 (SF-268): > 100 µM (inactive) | GI50 (SF-295): > 100 µM (inactive) | GI50 (SF-539): > 100 µM (inactive) | GI50 (SK-MEL-2): > 100 µM (inactive) | GI50 (SK-MEL-5): > 100 µM (inactive) | GI50 (SK-OV-3): > 100 µM (inactive) | GI50 (SN12C): > 100 µM (inactive) | GI50 (SNB-19): > 100 µM (inactive) | GI50 (SNB-75): 31.9 µM (inactive) | GI50 (SNB-78): > 100 µM (inactive) | GI50 (SR): > 100 µM (inactive) | GI50 (SW-620): > 100 µM (inactive) | GI50 (TK-10): > 100 µM (inactive) | GI50 (U-251): > 100 µM (inactive) | GI50 (UACC-257): > 100 µM (inactive) | GI50 (UACC-62): > 100 µM (inactive) | GI50 (UO-31): > 100 µM (inactive)

CC(C(=O)C(C)O[Si](c1ccccc1)(c1ccccc1)C(C)(C)C)=P(c1ccccc1)(c1ccccc1)c1ccccc1 (centres undefined)
GI50 (786-0): 4.06 µM (inactive) | GI50 (A498): 4.28 µM (inactive) | GI50 (A549): 3.3 µM (inactive) | GI50 (ACHN): 4.08 µM (inactive) | GI50 (CAKI-1): 3.21 µM (inactive) | GI50 (CCRF-CEM): 3.5 µM (inactive) | GI50 (COLO 205): 1.8 µM (inactive) | GI50 (DLD-1): 4.58 µM (inactive) | GI50 (DMS-114): 2.39 µM (inactive) | GI50 (EKVX): 12.9 µM (inactive) | GI50 (HCC 2998): 3.57 µM (inactive) | GI50 (HCT-116): 2.98 µM (inactive) | GI50 (HCT-15): 5.64 µM | GI50 (HL-60): 1.91 µM (inactive) | GI50 (HOP-18): 3.05 µM (inactive) | GI50 (HOP-62): 3.09 µM (inactive) | GI50 (HOP-92): 2.21 µM (inactive) | GI50 (HT-29): 3.08 µM (inactive) | GI50 (IGROV-1): 3.7 µM (inactive) | GI50 (K562): 2.95 µM (inactive) | GI50 (KM-20L2): 4.13 µM (inactive) | GI50 (KM12): 3.61 µM (inactive) | GI50 (LOX IMVI): 3.29 µM (inactive) | GI50 (LXFL 529): 3.3 µM (inactive) | GI50 (M14): 4.32 µM (inactive) | GI50 (M19-MEL): 3.11 µM (inactive) | GI50 (MOLT-4): 2.95 µM (inactive) | GI50 (Malme-3M): 3.13 µM (inactive) | GI50 (NCI-H226): 3.3 µM (inactive) | GI50 (NCI-H23): 3.23 µM (inactive) | GI50 (NCI-H460): 3.69 µM (inactive) | GI50 (OVCAR-3): 2.9 µM (inactive) | GI50 (OVCAR-4): 3.37 µM (inactive) | GI50 (OVCAR-5): 11 µM (inactive) | GI50 (OVCAR-8): 3.82 µM (inactive) | GI50 (RPMI-8226): 2.34 µM (inactive) | GI50 (SF-295): 3.33 µM (inactive) | GI50 (SF-539): 3.89 µM (inactive) | GI50 (SK-MEL-2): 2.5 µM (inactive) | GI50 (SK-MEL-5): 2.75 µM (inactive) | GI50 (SK-OV-3): 2.42 µM (inactive) | GI50 (SN12C): 3.77 µM (inactive) | GI50 (SNB-19): 3.96 µM (inactive) | GI50 (SNB-75): 3.41 µM (inactive) | GI50 (SNB-78): 3.48 µM (inactive) | GI50 (SW-620): 3.91 µM (inactive) | GI50 (TK-10): 4.76 µM (inactive) | GI50 (U-251): 4.01 µM (inactive) | GI50 (UACC-257): 3.71 µM (inactive) | GI50 (UACC-62): 3.94 µM (inactive) | GI50 (UO-31): 5.28 µM (inactive) | GI50 (XF498): 2.79 µM (inactive)
